Where two headings read alike, the source gives them in different places.
Tests used:
[1] = Pharmacokinetics of Ewha-18278 after IV and oral administration to rats (non-compartmental analysis, HPLC/UV plasma assay); format: in vivo, Sprague-Dawley rats; details: for F (absolute BA): PO 20 mg/kg vs IV 2 mg/kg
Description: The plasma sample (50 µL) with IS was deproteinized with twice the volume of acetonitrile (ACN). All HPLC analyses were performed on an Agilent 1100 series system (Palo Alto, CA, USA). Capcell-pak C18 MG120 column (3.0 mm × 250 mm, 5 µm, Shiseido, Tokyo, Japan) was the analytical column used. All the prepared samples were eluted with acetonitrile and water (65:35, v/v) containing 0.1% trifluoroacetic acid (TFA) at a flow rate of 0.5 mL/min. The sample reservoir and column oven were maintained at 4 °C and 40 °C, respectively. UV detection was performed at 284 nm and the injection volume was 30 µL.
All the animal procedures were approved by the Institutional Animal Care and Use Committee of Ewha Womans University (IACUC) (No. 2010-2-5, approved on 19 February 2010), Seoul, Korea. Seven-week-old male Sprague-Dawley rats (200–240 g) were used for the PK experiments.
The DMSO-based formulations were comprised of 10% DMSO and 90% saline-based solution (25% Cremophor® EL, 5% polyethylene glycol 400, 0.5% Tween® and 69.5% saline, v/v/v/v). The diazepam injection-based formulation applicable to humans was composed of 40% propylene glycol, 10% dehydrated ethanol, and 50% water (v/v/v). […] These concentrations were utilized to examine the effect of concentration on the PK parameters of the compound.
The rats were divided into five groups on the day of the drug administration. Two groups (n = 6) were administered the DMSO-based formulation: IV injection of 2 mg/kg and oral administration of 20 mg/kg. Three groups (n = 5–6) were treated with the diazepam injection-based formulation: IV injection of 2 mg/kg and oral administration of 20 mg/kg in two different concentrations (1 mg/mL and 2 mg/mL). The common carotid artery was catheterized for blood sampling. Blood sampling (0.2 mL) was conducted at 0, 0.033, 0.083, 0.25, 0.5, 1, 2, 4, 6, 10, and 24 h for the IV group and 0, 0.083, 0.25, 0.5, 1, 2, 4, 6, 10, 24, and 34 h for PO groups. Plasma samples mixed with IS (Ewha-18212) were analyzed by the HPLC system.

[2] = Stability of Ewha-18278 in rat plasma (short-term, long-term, freeze-thaw, post-preparative); format: in vitro ADME; details: n = 3; for Stability 37 °C, 6 h / Stability Freeze-thaw / Stability RT, 6 h / Stability −20 °C, 4-W / Stability −70 °C, 4-W: rat plasma
[3] = Solubility (aqueous / in co-solvent formulation); format: physicochemical
[4] = system: NOX1; parameters: method as in PMID 26975635; details: in vitro; cited from earlier work
[5] = system: NOX2; parameters: method as in PMID 26975635; details: in vitro; cited from earlier work
[6] = system: NOX4; parameters: method as in PMID 26975635; details: in vitro; cited from earlier work
[7] = system: bone marrow-derived macrophages (BMMs); parameters: method as in PMID 26975635; details: in vitro; cited from earlier work
[8] = system: ovariectomized (OVX) mice; parameters: method as in PMID 26975635; details: orally 10–20 mg/kg daily for 4 weeks; cited from earlier work
[9] = IV 2 mg/kg, diazepam injection-based formulation (1 mg/mL)
[10] = male, Sprague-Dawley, rat, plasma, iv, 2 mg/kg, IV 2 mg/kg, DMSO formulation (1 mg/mL)
[11] = male, Sprague-Dawley, rat, plasma, po, 20 mg/kg, PO 20 mg/kg, DMSO formulation (2 mg/mL)
[12] = male, Sprague-Dawley, rat, plasma, po, 20 mg/kg, PO 20 mg/kg, diazepam injection-based formulation (2 mg/mL)

## CCCc1c(-c2ccccc2)nn(-c2ccccn2)c1O [Ewha-18278]
[1]; IV 2 mg/kg, DMSO formulation (1 mg/mL)
  Clt: 0.216 ± 0.084 L/h
[1]; [9]
  Clt: 0.250 ± 0.072 L/h
  Vd: 1.52 ± 1.17 L
[1]; DMSO formulation (2 mg/mL)
  F (absolute BA): 62.4%
[1]; diazepam injection-based formulation (1 mg/mL)
  F (absolute BA): 67.2%
[1]; diazepam injection-based formulation (2 mg/mL)
  F (absolute BA): 43.0%
[1]; PO 20 mg/kg, DMSO formulation (2 mg/mL)
  Clt/F: 0.327 ± 0.164 L/h
[1]; PO 20 mg/kg, DMSO formulation (2 mg/mL), 20 mg/kg
  AUCinf: 19400 ± 8690 ng·h/mL
[1]; PO 20 mg/kg, DMSO-based and diazepam injection-based formulations
  BA (absolute), all groups / both formulations: more than 40%
[1]; PO 20 mg/kg, diazepam injection-based formulation (1 mg/mL)
  Clt/F: 0.531 ± 0.370 L/h
[1]; PO 20 mg/kg, diazepam injection-based formulation (2 mg/mL)
  Clt/F: 0.726 ± 0.553 L/h
[1]; PO 20 mg/kg, diazepam injection-based formulation, 2 mg/mL vs 1 mg/mL
  Decrease of PK parameters (AUCinf, t1/2, absolute BA) in the higher concentration group: ~35%
[1]; PO 20 mg/kg, diazepam injection-based formulation, high concentration (2 mg/mL)
  Time of second peak in plasma concentration-time profile: 10 h
[1]; PO 20 mg/kg, diazepam injection-based formulation, low concentration (1 mg/mL)
  Time of second peak in plasma concentration-time profile: 6 h
[1]; PO, diazepam injection-based formulation, 1 mg/mL compared to 2 mg/mL
  Increase of AUCinf at low vs high concentration: 1.6 fold
[1]; male, Sprague-Dawley, rat, plasma, IV 2 mg/kg, DMSO formulation (1 mg/mL)
  C0: 7240 ± 2450 ng/mL
[1]; male, Sprague-Dawley, rat, plasma, IV 2 mg/kg, DMSO formulation (1 mg/mL), read-out: Vd
  Vd: 0.785 ± 0.154 L
[1]; [10]
  AUC(0-inf): 2860 ± 1090 ng·h/mL
  half-life: 3.07 ± 2.01 h
[1]; [11]
  AUC(0-inf): 17900 ng·h/mL
  Cmax: 4680 ± 2110 ng/mL
  Tmax: 0.249 ± 0.166 h
  Vd/F: 6.06 ± 2.32 L
  half-life: 14.2 ± 4.76 h
[1]; male, Sprague-Dawley, rat, plasma, po, 20 mg/kg, PO 20 mg/kg, diazepam injection-based formulation (1 mg/mL)
  Vd/F: 9.72 ± 5.17 L
[1]; [12]
  AUC(0-inf): 9250 ± 4420 ng·h/mL
  Cmax: 6240 ± 2020 ng/mL
  Tmax: 0.083 h
  Vd/F: 7.9 ± 3.01 L
  half-life: 8.96 ± 2.92 h
[2]; high QC concentration
  Stability Post-prep.: 103%
  Stability 37 °C, 6 h: 87.5%
  Stability Freeze-thaw: 86.0%
  Stability RT, 6 h: 93.4%
  Stability −20 °C, 4-W: 90.4%
  Stability −70 °C, 4-W: 97.5%
[2]; low QC concentration
  Stability Post-prep.: 103%
  Stability 37 °C, 6 h: 89.0%
  Stability Freeze-thaw: 90.4%
  Stability −20 °C, 4-W: 99.4%
  Stability −70 °C, 4-W: 100%
[2]; low QC concentration, vs freshly prepared QC samples
  Stability RT, 6 h: 94.5%
[3]; mixture of propylene glycol, dehydrated ethanol, and water
  Dissolution in co-solvents: completely dissolved
[3]; salt formation
  Solubility of the hydrochloride salt relative to free form #2: strongly enhanced the solubility
[3]; water
  Aqueous solubility: highly insoluble in water
[4]
  Effect on NOX1 activity: directly interfering with the activity
[5]
  Effect on NOX2 activity: directly interfering with the activity
[6]
  Effect on NOX4 activity: directly interfering with the activity
[7]
  Effect on responses of BMMs to RANKL: inhibited
[8]
  Bone strength / cortical bone thickness: induced bone strength by increasing cortical bone thickness

Reference: paper PMC6781499 (Pharmaceutics, 2019)
